B1: prolactin (protein, UniProt P01236 29-227, looked up)
Prolactin: LPICPGGAARCQVTLRDLFDRAVVLSHYIHNLSSEMFSEFDKRYTHGRGFITKAINSCHTSSLATPEDKEQAQQMNQKDFLSLIVSILRSWNEPLYHLVTEVRGMQEAPEAILSKAVEIEEQTKRLLEGMELIVSQVHPETKENEIYPVWSGLPSLQMADEESRLSAYYNLLHCLRRDSHKIDNYLKLLKCRIIHNNNC
B2: TARGET TEMPLATE to … (GAL4 17-31AA): Target oligo template pool, 1st and 3rd codon letters reverse-complementary to Gal4 coding sequence 17-31, 2nd letter undefined (nucleic acid)
DNA: GGATCCATGANTCNTGNCANGGNCTNCTNGANGANAANTCNGTNGANATNGCNGATTCGGCCGC
modifications: listed as DNA, chemistry not fully specified; the letters are possibly those of the target site

Tests used:
GAL4 peptide = assay: Binding of fluorescent labeled GAL4 peptide to protein extracts of monoclonal clones; settings: other proteins tested even in much higher concentrations
[1] = molecular target: T1, dimerisation domain of 1HBW REGULATORY PROTEIN GAL4 (Saccharomyces cerevisiae, UniProt P04386); assay: BacterioMatch two-hybrid assay with Target Oligo Pool in pTRG vector; type: cell-based; settings: ampicillin-resistant reporter
T1 construct: the dimerisation domain of 1HBW REGULATORY PROTEIN GAL4 inserted into pBT (as it is provided and described by Stratagene); host or cells: E. coli BacterioMatch two-hybrid reporter strain (derived from XL1-Blue MRF')
Protocol: The BacterioMatch™ two-hybrid system* (Stratagene, 11011 N. Torrey Pines Road La Jolla, Calif. 92037) was used to Quickly Detect Protein-Protein Interactions designed by the recent Method. It is a simple alternative or complement to yeast two-hybrid systems for in vivo detection of protein-protein interactions. Because the two-hybrid assay is performed in bacteria, results are obtained more easily and quickly than in yeast. The system is based on transcriptional activation of a primary ampicillin-resistant reporter and a secondary β-galactosidase reporter for validation. The BacterioMatch two-hybrid system is based on a methodology developed by Dove, Joung, and Hochschild of Harvard Medical School.
The BacterioMatch two-hybrid system is based on transcriptional activation (FIG. 4). A protein of interest—the bait—is fused to the full-length bacteriophage repressor protein (.lamda.cI). The corresponding target protein is fused to the amino-terminal domain of the α-subunit of RNA polymerase (RNAPα). The bait is tethered to the […] sequence upstream of the reporter promoter through the DNA-binding domain of .lamda.cI. If the bait and target interact, they recruit and stabilize the binding of RNA polymerase close to the promoter and activate the transcription of the ampicillin-resistant reporter gene in the BacterioMatch two-hybrid reporter strain. […]

T1 sequence (P04386 50-106 limits assumed): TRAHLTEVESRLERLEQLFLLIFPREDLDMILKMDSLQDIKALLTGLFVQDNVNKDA

Molecule	competition with binding of labeled GAL4 to the proteins from positive clones (GAL4 peptide)	positive bacterial clones growing on double selective medium [1]
growth hormone	ineffective competitors	–
Unlabelled GAL4: unlabelled GAL4 peptide, the query, used as competitor of labeled GAL4 (ESRLERLEQLFLLIF)	inhibited	–
B1	ineffective competitors	–
B2	–	numerous positive bacterial clones

From US8145437B2, “System and method to obtain oligo-peptides with specific high affinity to query proteins” (priority 2005, dated 2012)
